Results published in US6001801A, “Cyclic peptide analogs of somatostatin” (Biomeasure, Inc., priority 1998, dated 1999).
Bridge positions count the residues as written; N and C are the ends. Square brackets hold non-standard residues; d marks the D form. Peptide text beside a SMILES is read from it.

Molecular target: T1, human SSTR-5 (Homo sapiens, UniProt P35346)
T1 construct: expressed in transfected cells; host or cells: CHO-K1
Test: Human SSTR-5 binding assay ([125I-Tyr11]somatostatin-14 displacement, membranes of transfected CHO-K1 cells)
Conditions: ratio greater than one = more selective for SSTR-5 than for SSTR-2
Description: (2) Human SSTR-5 Binding Assay
CHO-K1 cells were transfected with the human SSTR-5 cDNA, described in Yamada, et al., Biochem Biophys. Res. Commun., 195-844 (1993) using standard techniques known in the molecular biological art. See, e.g., Patel, et al., Biochem. Biophys. Res. Comm. 198:605 (1994). Crude membranes were prepared by homogenization of the human SSTR-5 transfected CHO-K1 cells in 20 ml of ice-cold 50 mM Tris-HCl with a POLYTRON™ homogenizer (setting 6, 15 sec). Buffer was added to obtain a final volume of 40 ml, and the homogenate was centrifuged in a SORVAL™ SS-34 rotor at 39,000 g for 10 min at 0-4° C. The resulting supernatant was decanted and discarded. The pellet was rehomogenized in ice-cold buffer, diluted, and centrifuged as before. The final pellet was resuspended in the 10 mM Tris HCl and held on ice for the receptor binding assay.
The final assay volume was 0.3 ml. The incubations were terminated by rapid filtration through GF/C filters (pre-soaked in 0.3% polyethylenimine for 30 min) using a Brandel filtration manifold. Each tube and filter was then washed three times with 5 ml aliquots of ice-cold buffer.

T1 sequence (P35346 whole entry): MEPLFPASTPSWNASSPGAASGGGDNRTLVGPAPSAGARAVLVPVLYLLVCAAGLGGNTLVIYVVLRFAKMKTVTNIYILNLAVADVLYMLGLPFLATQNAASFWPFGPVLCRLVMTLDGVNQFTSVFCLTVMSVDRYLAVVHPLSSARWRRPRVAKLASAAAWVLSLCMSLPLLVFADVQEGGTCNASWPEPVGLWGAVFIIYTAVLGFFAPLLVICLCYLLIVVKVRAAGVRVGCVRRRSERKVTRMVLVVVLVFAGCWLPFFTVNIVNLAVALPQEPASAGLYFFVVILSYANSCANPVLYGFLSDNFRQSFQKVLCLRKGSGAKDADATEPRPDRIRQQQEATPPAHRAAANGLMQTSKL

Row | SSTR-2/SSTR-5 (ratio of the Ki's for human SSTR-2 and human SSTR-5) | Molecule
1 | 20.8 | NCCCC[C@@H]1NC(=O)[C@@H](Cc2c[nH]c3ccccc23)NC(=O)[C@H](Cc2ccccc2)NC(=O)[C@H](Cc2ccccc2)NC(=O)[C@@H](N)CSSC[C@@H](C(N)=O)NC(=O)[C@H](Cc2ccccc2)NC(=O)[C@H](CO)NC1=O [Analog IV, H2 -c[Cys-Phe-Phe-D-Trp-Lys-Ser-Phe-Cys] -NH2] (H-CFF[dW]KSFC-NH2; disulfide 1-8)
2 | 12.1 | NCCCC[C@@H]1NC(=O)[C@@H](Cc2c[nH]c3ccccc23)NC(=O)[C@H](Cc2c[nH]c3ccccc23)NC(=O)[C@H](Cc2ccccc2)NC(=O)[C@@H](N)CSSC[C@@H](C(N)=O)NC(=O)[C@H](Cc2ccccc2)NC(=O)[C@H](CO)NC1=O [Analog III, H2 -c[Cys-Phe-Trp-D-Trp-Lys-Ser-Phe-Cys] -NH2] (H-CFW[dW]KSFC-NH2; disulfide 1-8)
3 | 40.2 | H2 -c[Cys-Phe-Phe-D-Trp-Lys-Thr-Phe-Cys] -NH2 [Analog I]

More lines, now with the values behind:

Row | Molecule | SSTR-2/SSTR-5 (ratio of the Ki's for human SSTR-2 and human SSTR-5)
4 | C[C@@H](O)[C@@H]1NC(=O)[C@H](CCCCN)NC(=O)[C@@H](Cc2c[nH]c3ccccc23)NC(=O)[C@H](Cc2ccccc2)NC(=O)[C@H](Cc2ccccc2)NC(=O)[C@H](N)CSSC[C@@H](C(N)=O)NC(=O)[C@H](Cc2ccccc2)NC1=O [Analog II, H2 -c[D-Cys-Phe-Phe-D-Trp-Lys-Thr-Phe-Cys] -NH2] (H-[dC]FF[dW]KTFC-NH2; disulfide 1-8) | 4.94
5 | H2 -c[Cys-Asn-Phe-Phe-D-Trp-Lys-Thr-Phe-Cys]-NH2 [Analog V] | 53.1
